The values that follow come from article PMC6212553, “Baicalein Enhances the Oral Bioavailability and Hepatoprotective Effects of Silybin Through the Inhibition of Efflux Transporters BCRP and MRP2” (Frontiers in Pharmacology, 2018).

The data set is described as follows: Bidirectional transport of silybin across Caco-2 cell monolayers. The class given is in vitro ADME, Human. The settings on record: human. As to the method:
Human colon epithelial cell line (Caco-2) was purchased from American Type Culture Collection (Manassas, VA, United States) and frozen at -80°C. Wild type MDCK II, MDR1-MDCK II, BCRP-MDCK II, and MRP2-MDCK II cells were kindly supplied by the Netherlands Cancer Institute (Amsterdam, Netherlands). Transport study was carried out with Caco-2 cells, and MDCK II cells were transfected using a previously established method with slight modifications ([Yuan et al., 2017]). The Caco-2 cells were cultured at 37°C/5% CO2 in Dulbecco's modified Eagle's medium (DMEM) supplemented with 10% fetal bovine serum, 1% nonessential amino acids, and 1% penicillin-streptomycin. The Caco-2 cells were seeded onto polyester filter membranes in a 12-well Transwell® plate (Corning Costar Co., NY, United States) with 0.6 × 10^5 cells/cm^2. The monolayer cells were used for transport assays between 21 and 23 days. The MDCKII cells were seeded on transwell plates with a density of 2.0 × 10^5 cells/cm^2 and grown for 4-5 days to form a confluent monolayer. Bidirectional transport assays for Caco-2 and MDCK II cells were performed by adding silybin (10 μM) in assay buffer into either the apical (AP; A-to-B) or basolateral (BL; […] For inhibition studies, Caco-2 or MDCK II cell monolayers in both apical and basolateral chambers were preincubated with the inhibitor for 30 min. The fluorescence intensity of the sample collected from the AP or BL side was immediately detected in a 96-well black plate by the Microplate UV/VIS spectrophotometer (TECAN Infinite […], Männedorf, Switzerland). For liquid chromatography tandem-mass spectrometry (LC-MS/MS) analysis, the sample (100 μl) was mixed with methanol (50 μl) containing internal standard (25 ng/ml) and was stored at -80°C. The formula for calculating apparent permeability coefficient (Papp) values is as follows: (1) […] where dQ/dt (mM/s) represents the rate of permeation of the drug across the cells, C0 (mM) refers to the concentration in the donor compartment at time zero calculated from dosing solution, and A (cm^2) refers to the area of the cell monolayer. Papp (B-A) is the Papp value measured in the B to A direction, and Papp (A-B) is the Papp value measured in the A to B direction. The efflux ratio is given as ER = Papp (B to A)/Papp (A to B).
For orientation: Caco-2 cells form a polarised layer with tight junctions and transporters.

Where [1] appears, read: Caco-2, silybin 10 μM, co-treatment with baicalein 5 μM, read-out: efflux ratio.
Where [2] appears, read: Caco-2 model, silybin alone, read-out: mean efflux ratio.

Where two headings read alike, the source gives them in different places.

For `COc1cc([C@H]2Oc3cc([C@H]4Oc5cc(O)cc(O)c5C(=O)[C@@H]4O)ccc3O[C@@H]2CO)ccc1O` [silybin A], the efflux ratio at 180 min, 10 μM under setting [1] was found to be 2.38 ± 0.27 and the efflux ratio at 180 min, 10 μM under setting [2] is 5.62.
With `COc1cc([C@@H]2Oc3cc([C@H]4Oc5cc(O)cc(O)c5C(=O)[C@@H]4O)ccc3O[C@H]2CO)ccc1O` [silybin B], the efflux ratio at 180 min, 10 μM was found to be 2.33 ± 0.09 under setting [1] and 5.13 under setting [2].
